What was measured:
Format in all cases: cell-based, mouse
neutrophils = experiment: In vitro neutrophil transmigration assay; conditions: as chemoattractant; 3 h
Description: FIGS. 33A-33C depicts GM-CSF enhances neutrophil transmigration and delay apoptosis in vitro. (FIG. 33A) Percentages of migrated neutrophils with or without GM-CSF as chemoattractant in transmigration assay at 3 h post start. (FIG. 33B) Microscopic images of CFSE-labeled neutrophils in the bottom of the lower chamber in transmigration assay. (FIG. 33C) Sorted neutrophils were cultured in vitro with or without GM-CSF (20 ng/ml) for 24 h. Neutrophils undergoing apoptosis were examined by Annexin V and propidium iodide (PI) co-staining. A representative flow cytometry of three repeats was shown. *p<0.05.
Neutrophils are recruited during inflammation, in which complex interactions between neutrophils and vascular endothelial cells direct neutrophil adhesion and transmigration from circulation to inflamed tissues (Kolaczkowska and Kubes, 2013). […] Effective neutrophil apoptosis is crucial for the resolution of inflammation. However, in synovitis, neutrophil apoptosis is delayed with a result of extended survival and persistent inflammation (Wright et al., 2014). […] To determine the critical role of neutrophils in AIA, \ neutralizing antibody (1A8) specific for Ly6G was used to deplete neutrophils in vivo. […] Thus, neutrophils accumulation mediated by TH-cell-derived GM-CSF are important for AIA development.

BMDMs = experiment: Cytokine expression by bone marrow-derived macrophages (BMDMs)
Source text: (§1) FIGS. 34A-34I depicts GM-CSF mediates proinflammatory cytokine expression by myeloid cells and synovial fibroblasts in arthritic mice. Synovial tissues were dissected from wild-type AIA mice and dissociated into single cell suspensions. (FIG. 34A) Flow cytometry plots depicting the fractionation into different populations based on differential expression of surface markers. (FIG. 34B) The mRNA expression of several proinflammatory cytokines in sorted CD45^+ TCRβ^+ (TCRβ^+ in short), CD45^+ TCRβ^−CD11c^−CD11b^+ (CD11b^+) and CD45^+ TCRβ^−CD11c^+ (CD11c^+) populations was measured by qPCR. The qPCR data were normalized to GAPDH. (FIG. 34C) The mRNA expression of IL-6, IL-1β and TNF-α in sorted Ly6C^hiLy6G^− and Ly6C^loLy6G^hi populations (gated on CD11b^+ cells). The qPCR data were normalized to GAPDH. (FIGS. 34D and 34E) The mRNA expression of IL-6 and IL-1β by BMDMs (FIG. 34D) and BMDCs (FIG. 34E) upon stimulation with 20 ng/ml GM-CSF for 1 h. The qPCR data were normalized to GAPDH. (FIGS. 34F and 34G) BMDMs (FIG. 34F) and BMDCs (FIG. 34G) were stimulated with GM-CSF at indicated concentrations (n=3 per group) for 18 h. The secretion of IL-6 in the culture supernatant was quantified by ELISA. (FIG. 34H) BMDMs were primed with LPS ([…]) in the presence of GM-CSF at indicated concentrations (n=3 per group) for 6 h, followed by stimulation with ATP (5 mM) for 30 min. The secretion of IL-1β in the culture supernatant was quantified by ELISA. (FIG. 34I) Cells were cultured in DMEM medium supplemented with 10% FBS for over 20 days with more than 5 passages to obtain synovial fibroblasts. Synovial fibroblasts were stimulated with GM-CSF (20 ng/ml) for 1 h and harvested for RNA extraction. The mRNA expression of IL-1β was measured by qPCR. The qPCR data were normalized to GAPDH. All data shown represent two independent experiments. *p<0.05, **p<0.01.
To test the regulatory role of GM-CSF in the expression of IL-6 and IL-1β, bone marrow-derived macrophages (BMDMs) and bone marrow-derived dendritic cells (BMDCs) were cultured, and stimulated with GM-CSF. […] To induce mature IL-1β secretion, BMDMs were primed with LPS for 6 h during which different concentrations of GM-CSF was added, followed by ATP stimulation. […] An inducible effect of GM-CSF on TNF-α expression was not observed in BMDMs, BMDCs or synovial fibroblasts (data not shown). Given the functional importance of IL-6 and IL-1β in arthritis development (Choy and Panayi, 2001), TH-cell-secreted GM-CSF may mediate synovial inflammation also via eliciting the expression of IL-6 and IL-1β from myeloid cells and synovial fibroblasts.

BMDCs = experiment: Cytokine expression by bone marrow-derived dendritic cells (BMDCs)
Source text: as §1
To test the regulatory role of GM-CSF in the expression of IL-6 and IL-1β, bone marrow-derived macrophages (BMDMs) and bone marrow-derived dendritic cells (BMDCs) were cultured, and stimulated with GM-CSF. […]

Substance: GM-CSF: granulocyte macrophage colony-stimulating factor (ImmunoTools) given intraarticularly or added to cell cultures
- neutrophil adhesion and migration across monolayers of endothelial cells (neutrophils): significantly enhanced
- mRNA expression of IL-6 and IL-1β in BMDMs (BMDMs; 20 ng/ml, 1 h): quickly upregulated
- secretion of IL-6 from BMDMs (BMDMs; 18 h, ELISA): markedly increased
- secretion of IL-1β from BMDMs (BMDMs; LPS priming 6 h, then ATP 30 min, ELISA): significantly enhanced
- TNF-α expression in BMDMs (BMDMs; data not shown): not observed
- mRNA expression of IL-6 and IL-1β in BMDCs (BMDCs; 20 ng/ml, 1 h): quickly upregulated
- secretion of IL-6 from BMDCs (BMDCs; 18 h, ELISA): markedly increased
- TNF-α expression in BMDCs (BMDCs; data not shown): not observed

Reference: patent US10690666B2, “Methods and compositions for modulating TH-GM cell function” (National University of Singapore, priority 2014, dated 2020)
